20 compounds from patent US20140107109A1, “AMINO-DIHYDROTHIAZINE AND AMINO-DIOXIDO DIHYDROTHIAZINE COMPOUNDS AS BETA-SECRETASE ANTAGONISTS AND METHODS OF USE” (Amgen Inc., priority 2012, published 2014) can be followed below.

In assay [1] the test system is Aβ40 in conditioned medium of cells stably expressing Amyloid Precursor Protein (APP). Kind of assay: In vitro BACE cell-based assay (HEK cell assay), Aβ40 sandwich ELISA. Particulars: Homo sapiens, HEK293; average IC50, cell assay. The gist of the method:
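APP-stably expressing cells (40K/well, grown 24 h in DMEM/10% FBS) were treated 24 h with compounds in 10-point dose response starting at 100 μM or 10 μM, 0.1% DMSO final. Secreted Aβ40 was measured by sandwich ELISA (pAb40 capture, biotinylated 6E10 detection, europium time-resolved fluorescence); IC50 from percent inhibition.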

The next assay concerns the target T1, Cathepsin D (Cat D) (Homo sapiens, UniProt P07339).
T1 construct: Recombinant Cat D was expressed in CHO cells; made in house; host or cells: CHO cells
Kind of assay: In vitro enzymatic Cathepsin D (Cat D) FRET assay. In kind it is biochemical. To be noted: read-out: CatD IC50. Put shortly: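 Recombinant Cat D expressed in CHO cells, used at 9 nM and pre-incubated one hour with serially diluted inhibitor in DMSO. Peptide substrate carries a fluorophore and quencher flanking the cleavage site; reaction stopped with Tris buffer raising pH to neutrality, then fluorescence read.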

Assay [2] concerns the target Beta Secretase enzyme (BACE1) (Homo sapiens, UniProt P56817). Kind of assay: In vitro enzymatic BACE FRET assay. It is filed as biochemical. Particulars: average IC50, enzyme assay; read-out: BACE1 FRET assay IC50. Put shortly:
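BACE1 cleavage of a 50 nM fluorophore/quencher peptide FRET substrate ran for one hour in 0.05 M acetate pH 4.2, 10% DMSO, 100 uM genapol. Tris buffer raised pH to neutrality to stop the reaction before fluorescence was read (excitation 488 nm, […]).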

T1 sequence (P07339 65-412, species assumed): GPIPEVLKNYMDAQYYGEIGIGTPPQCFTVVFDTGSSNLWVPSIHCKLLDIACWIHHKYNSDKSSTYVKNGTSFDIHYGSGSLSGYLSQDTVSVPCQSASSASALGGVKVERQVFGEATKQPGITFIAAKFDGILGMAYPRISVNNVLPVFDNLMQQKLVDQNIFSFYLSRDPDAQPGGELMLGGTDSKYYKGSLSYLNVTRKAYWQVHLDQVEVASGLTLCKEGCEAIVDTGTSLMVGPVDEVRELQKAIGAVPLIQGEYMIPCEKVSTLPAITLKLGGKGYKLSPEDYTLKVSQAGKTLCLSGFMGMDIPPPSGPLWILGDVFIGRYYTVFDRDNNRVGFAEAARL
Beta Secretase enzyme (BACE1), sequence (P56817 46-501): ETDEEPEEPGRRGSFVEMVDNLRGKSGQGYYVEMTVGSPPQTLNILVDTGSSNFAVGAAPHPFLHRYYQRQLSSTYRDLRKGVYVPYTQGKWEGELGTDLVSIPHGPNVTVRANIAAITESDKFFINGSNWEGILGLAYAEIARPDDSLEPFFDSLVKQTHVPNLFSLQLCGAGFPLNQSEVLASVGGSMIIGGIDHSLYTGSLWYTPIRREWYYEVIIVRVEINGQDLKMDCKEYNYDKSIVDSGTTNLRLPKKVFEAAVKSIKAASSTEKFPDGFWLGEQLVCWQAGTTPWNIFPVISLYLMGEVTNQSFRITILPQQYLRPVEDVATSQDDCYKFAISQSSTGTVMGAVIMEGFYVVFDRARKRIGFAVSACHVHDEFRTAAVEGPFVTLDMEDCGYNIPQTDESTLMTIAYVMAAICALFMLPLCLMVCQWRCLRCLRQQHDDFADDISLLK

With `COc1cnc2c(Nc3ccc(F)c([C@@]4(C)N=C(N)C5(CCC5)S(=O)(=O)C4F)c3)nccc2n1` (stereo partly drawn) [Example 232, N-(3-((7R)-9-amino-6-fluoro-7-methyl-5,5-dioxido-5-thia-8-azaspiro[3.5]non-8-en-7-yl)-4-fluorophenyl)-2-methoxypyrido[3,4-b]pyrazin-5-amine], the half-maximal inhibitory concentration (IC50) in assay [1] turned out to be 78.4 nM; on Cathepsin D (Cat D), 303 µM; in assay [2], 13.1 nM.
For the compound `CC1(C)C(N)=N[C@](CF)(c2cc(Nc3ncc(F)c4cc(Cl)cnc34)ccc2F)CS1(=O)=O` [Example 233, N-(3-((3S)-5-amino-3-(fluoromethyl)-6,6-dimethyl-1,1-dioxido-3,6-dihydro-2H-1,4-thiazin-3-yl)-4-fluorophenyl)-3-chloro-5-fluoro-1,7-naphthyridin-8-amine], the IC50 in assay [1] came to 84.5 nM; at Cathepsin D (Cat D) it was 143 µM; in assay [2], 0.31 nM.
As to `CC1(C)C(N)=N[C@](CF)(c2cc(Nc3nccc4nc(C(F)(F)F)cnc34)ccc2F)CS1(=O)=O` [Example 234, N-(3-((3S)-5-amino-3-(fluoromethyl)-6,6-dimethyl-1,1-dioxido-3,6-dihydro-2H-1,4-thiazin-3-yl)-4-fluorophenyl)-2-(trifluoromethyl)pyrido[3,4-b]pyrazin-5-amine], the half-maximal inhibitory concentration (IC50) in assay [1] is 105 nM; on Cathepsin D (Cat D), above 14.8 µM; in assay [2], 2.03 nM.
In the case of `CC1(C)C(N)=N[C@](CF)(c2cc(Nc3ncnc4cc(Cl)cnc34)ccc2F)CS1(=O)=O` [Example 235, N-(3-((3S)-5-amino-3-(fluoromethyl)-6,6-dimethyl-1,1-dioxido-3,6-dihydro-2H-1,4-thiazin-3-yl)-4-fluorophenyl)-7-chloropyrido[3,2-d]pyrimidin-4-amine], the 50% inhibitory concentration (IC50) came to 30.8 nM in assay [1], 68.2 µM at Cathepsin D (Cat D) and 3.26 nM in assay [2].
For the compound `CC1(C)C(N)=N[C@](CF)(c2cc(Nc3ncnc4cc(C#N)cnc34)ccc2F)CS1(=O)=O` [Example 236, 4-((3-((3S)-5-amino-3-(fluoromethyl)-6,6-dimethyl-1,1-dioxido-3,6-dihydro-2H-1,4-thiazin-3-yl)-4-fluorophenyl)amino)pyrido[3,2-d]pyrimidine-7-carbonitrile], the half-maximal inhibitory concentration (IC50) was found to be 40.7 nM in assay [1], 56.1 µM on Cathepsin D (Cat D) and 0.73 nM in assay [2].
On to `CCOc1cnc2c(Nc3ccc(F)c([C@]4(CF)CS(=O)(=O)C(C)(C)C(N)=N4)c3)nccc2n1` [Example 237, N-(3-((3S)-5-amino-3-(fluoromethyl)-6,6-dimethyl-1,1-dioxido-3,6-dihydro-2H-1,4-thiazin-3-yl)-4-fluorophenyl)-2-ethoxypyrido[3,4-b]pyrazin-5-amine], for which the results for the IC50 (in assay [1]; at Cathepsin D (Cat D); in assay [2]) were 40.9 nM, 661 µM and 2.85 nM, respectively.
Take `CCOc1cnc2c(Nc3ccc(F)c([C@]4(CF)CS(=O)(=O)C5(CCC5)C(N)=N4)c3)nccc2n1` [Example 238, N-(3-((7S)-9-amino-7-(fluoromethyl)-5,5-dioxido-5-thia-8-azaspiro[3.5]non-8-en-7-yl)-4-fluorophenyl)-2-ethoxypyrido[3,4-b]pyrazin-5-amine]: the IC50 in assay [1] was 117 nM; on Cathepsin D (Cat D), above 400 µM; in assay [2] it was 3.99 nM.
With `COc1cnc2c(Nc3ccc(F)c([C@]4(CF)CS(=O)(=O)C5(CCC5)C(N)=N4)c3)nccc2c1` [Example 239, N-(3-((7S)-9-amino-7-(fluoromethyl)-5,5-dioxido-5-thia-8-azaspiro[3.5]non-8-en-7-yl)-4-fluorophenyl)-3-methoxy-1,7-naphthyridin-8-amine], the IC50 in assay [1] came out at 23.7 nM; on Cathepsin D (Cat D), 390 µM; in assay [2], 4.15 nM.
Consider `NC1=N[C@](CF)(c2cc(Nc3ncnc4cc(Cl)cnc34)ccc2F)CS(=O)(=O)C12CCC2` [Example 240, N-(3-((7S)-9-amino-7-(fluoromethyl)-5,5-dioxido-5-thia-8-azaspiro[3.5]non-8-en-7-yl)-4-fluorophenyl)-7-chloropyrido[3,2-d]pyrimidin-4-amine], for which the results for the IC50 (in assay [1]; on Cathepsin D (Cat D); in assay [2]) were 27.2 nM, 57.1 µM and 1.7 nM, respectively.
For the compound `N#Cc1cnc2c(Nc3ccc(F)c([C@]4(CF)CS(=O)(=O)C5(CCC5)C(N)=N4)c3)ncc(F)c2c1` [Example 241, 8-((3-((7S)-9-amino-7-(fluoromethyl)-5,5-dioxido-5-thia-8-azaspiro[3.5]non-8-en-7-yl)-4-fluorophenyl)amino)-5-fluoro-1,7-naphthyridine-3-carbonitrile], the IC50 was 47.9 nM in assay [1], above 4.94 µM on Cathepsin D (Cat D) and 0.9 nM in assay [2].
In the case of `COc1cnc2c(Nc3ccc(F)c([C@]4(CF)CS(=O)(=O)C5(CCC5)C(N)=N4)c3)ncnc2c1` [Example 242, N-(3-((7S)-9-amino-7-(fluoromethyl)-5,5-dioxido-5-thia-8-azaspiro[3.5]non-8-en-7-yl)-4-fluorophenyl)-7-methoxypyrido[3,2-d]pyrimidin-4-amine], the concentration for half-maximal inhibition (IC50) in assay [1] came to 14 nM; on Cathepsin D (Cat D) it was 119 µM; in assay [2], 1.47 nM.
The like results for `NC1=N[C@](CF)(c2cc(Nc3nccc4cc(Cl)cnc34)ccc2F)CS(=O)(=O)C12CCC2` [Example 245, N-(3-((7S)-9-amino-7-(fluoromethyl)-5,5-dioxido-5-thia-8-azaspiro[3.5]non-8-en-7-yl)-4-fluorophenyl)-3-chloro-1,7-naphthyridin-8-amine] were, in that order, 46.5 nM, 290 µM and 0.56 nM.
On to `COc1cnc2c(Nc3ccc(F)c([C@]4(CF)CS(=O)(=O)C5(CCC5)C(N)=N4)c3)nccc2n1` [Example 246, N-(3-((7S)-9-amino-7-(fluoromethyl)-5,5-dioxido-5-thia-8-azaspiro[3.5]non-8-en-7-yl)-4-fluorophenyl)-2-methoxypyrido[3,4-b]pyrazin-5-amine], for which the results for the IC50 (in assay [1]; at Cathepsin D (Cat D); in assay [2]) were 21.6 nM, 811 µM and 1.46 nM, respectively.
`COc1cnc2c(Nc3ccc(F)c([C@@]45COC[C@@H]4S(=O)(=O)C(C)(C)C(N)=N5)c3)nccc2n1` [Example 247, N-(3-((4aR,7aR)-3-amino-2,2-dimethyl-1,1-dioxido-7,7a-dihydro-2H-furo[3,4-b][1,4]thiazin-4a(5H)-yl)-4-fluorophenyl)-2-methoxypyrido[3,4-b]pyrazin-5-amine]: the IC50 in assay [1] was 2800 nM; at Cathepsin D (Cat D), 477 µM; in assay [2] it was 704 nM.
As for `COc1cnc2c(Nc3ccc(F)c([C@]45COC[C@H]4S(=O)(=O)C(C)(C)C(N)=N5)c3)nccc2n1` [Example 248, N-(3-((4aS,7aS)-3-amino-2,2-dimethyl-1,1-dioxido-7,7a-dihydro-2H-furo[3,4-b][1,4]thiazin-4a(5H)-yl)-4-fluorophenyl)-2-methoxypyrido[3,4-b]pyrazin-5-amine], the 50% inhibitory concentration (IC50) in assay [1] was 20.9 nM; at Cathepsin D (Cat D), 199 µM; in assay [2], 3.04 nM.
Regarding `CC1(C)C(N)=N[C@@]2(c3cc(Nc4nccc5[nH]c(=O)cnc45)ccc3F)COC[C@H]2S1(=O)=O` [Example 249, 5-((3-((4aS,7aS)-3-amino-2,2-dimethyl-1,1-dioxido-7,7a-dihydro-2H-furo[3,4-b][1,4]thiazin-4a(5H)-yl)-4-fluorophenyl)amino)pyrido[3,4-b]pyrazin-2(1H)-one], the 50% inhibitory concentration (IC50) was 153 nM in assay [1], 102 µM on Cathepsin D (Cat D) and 6.36 nM in assay [2].
As for `COc1cnc2c(Nc3ccc(F)c([C@@]4(C)N=C(N)C(C)(C)S(=O)(=O)C45CC5)c3)nccc2n1` [Example 250, N-(3-((8R)-6-amino-5,5,8-trimethyl-4,4-dioxido-4-thia-7-azaspiro[2.5]oct-6-en-8-yl)-4-fluorophenyl)-2-methoxypyrido[3,4-b]pyrazin-5-amine], the IC50 in assay [1] is 59 nM; at Cathepsin D (Cat D), 113 µM; in assay [2], 21.2 nM.
In the case of `C[C@]1(c2cc(Nc3nccc4cc(C#N)cnc34)ccc2F)N=C(N)C2(CCC2)S(=O)(=O)C1F` (stereo partly drawn) [Example 251, 8-((3-((7R)-9-amino-6-fluoro-7-methyl-5,5-dioxido-5-thia-8-azaspiro[3.5]non-8-en-7-yl)-4-fluorophenyl)amino)-1,7-naphthyridine-3-carbonitrile], the figures for the IC50 (in assay [1]; on Cathepsin D (Cat D); in assay [2]) were 13.5 nM, 42.8 µM and 0.58 nM, respectively.
Consider `COc1ccc(CSc2ccc(F)c([C@]3(C)CS(=O)(=O)C(C)(C)C(N)=N3)c2)cc1` [Example 252, (5R)-5-(2-fluoro-5-((4-methoxybenzyl)sulfanyl)phenyl)-2,2,5-trimethyl-5,6-dihydro-2H-1,4-thiazin-3-amine 1,1-dioxide], for which the half-inhibitory concentration (IC50) was 1900 nM in assay [1], 35.9 µM on Cathepsin D (Cat D) and 1210 nM in assay [2].
`CC1(C)C(N)=N[C@](C)(c2cc(Oc3nccc4nc(C(F)(F)F)cnc34)ccc2F)CS1(=O)=O` [Example 253, (5R)-5-(2-fluoro-5-((2-(trifluoromethyl)pyrido[3,4-b]pyrazin-5-yl)oxy)phenyl)-2,2,5-trimethyl-5,6-dihydro-2H-1,4-thiazin-3-amine 1,1-dioxide]: the values for the 50% inhibitory concentration (IC50) (in assay [1]; on Cathepsin D (Cat D); in assay [2]) were 1030 nM, 1410 µM and 27.6 nM, respectively.

Broadly, the IC50 is the point on the concentration scale where inhibition reaches its midpoint.
